pIC50: −log10 of the molar value.
Tested on: G-401 tumor spheroids, viability % test/control
Test: Anticancer human tumor G-401 cell line growth inhibition;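 also: spheroids exposed to compound for 7 days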;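 as to viability, T/C: 100% = DMSO vehicle-treated spheroids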
Details: spheroids with HUVEC and MSC; for pIC50: curve of first compound; for viability, T/C: stronger effect = lower value
Summary of the method: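 Complex spheroids of malignant cells with endothelial cells and mesenchymal stem cells; agents alone or combined, from near clinical Cmax (or 10 microM if unknown) down in half-log steps, 0.25% DMSO final.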

[1] = second compound 30 pM, first compound 0.00949 µM
[2] = second compound 30 pM, first compound 0.03 µM
[3] = second compound 30 pM, first compound 0.0949 µM
[4] = second compound 30 pM, first compound 0.3 µM
[5] = second compound 30 pM, first compound 0.949 µM
[6] = second compound 30 pM, first compound 3 µM
[7] = second compound 94.9 pM, first compound 0.00949 µM
[8] = second compound 94.9 pM, first compound 0.03 µM
[9] = second compound 94.9 pM, first compound 0.0949 µM
[10] = second compound 94.9 pM, first compound 0.3 µM
[11] = second compound 94.9 pM, first compound 0.949 µM
[12] = second compound 94.9 pM, first compound 3 µM
[13] = second compound 0.0003 µM, first compound 0.00949 µM
[14] = second compound 0.0003 µM, first compound 0.03 µM
[15] = second compound 0.0003 µM, first compound 0.0949 µM
[16] = second compound 0.0003 µM, first compound 0.3 µM
[17] = second compound 0.0003 µM, first compound 0.949 µM
[18] = second compound 0.0003 µM, first compound 3 µM
[19] = second compound 0.000949 µM, first compound 0.00949 µM
[20] = second compound 0.000949 µM, first compound 0.03 µM
[21] = second compound 0.000949 µM, first compound 0.0949 µM
[22] = second compound 0.000949 µM, first compound 0.3 µM
[23] = second compound 0.000949 µM, first compound 0.949 µM
[24] = second compound 0.000949 µM, first compound 3 µM
[25] = second compound 0.003 µM, first compound 0.00949 µM
[26] = second compound 0.003 µM, first compound 0.03 µM
[27] = second compound 0.003 µM, first compound 0.0949 µM
[28] = second compound 0.003 µM, first compound 0.3 µM
[29] = second compound 0.003 µM, first compound 0.949 µM
[30] = second compound 0.003 µM, first compound 3 µM

Row | Compound | pIC50 (second compound 30 pM) | pIC50 (second compound 94.9 pM) | pIC50 (second compound 0.0003 µM) | pIC50 (second compound 0.000949 µM) | pIC50 (second compound 0.003 µM) | viability, T/C [3] | viability, T/C [4] | viability, T/C [5] | viability, T/C [6] | viability, T/C [9] | viability, T/C [10] | viability, T/C [11] | viability, T/C [12] | viability, T/C [15] | viability, T/C [16] | viability, T/C [17] | viability, T/C [18] | viability, T/C [21] | viability, T/C [22] | viability, T/C [23] | also measured
1 | CNCc1ccc(-c2cc(-c3nc(-c4ccc(S(=O)(=O)C(C)C)cc4)cnc3N)on2)cc1 + COc1cc2c(cc1O)CCNC21CSC2c3c(OC(C)=O)c(C)c4c(c3C(COC1=O)N1C(O)C3Cc5cc(C)c(OC)c(O)c5C(C21)N3C)OCO4 | 5.85 | 6.28 | 7.99 | > 8.02 | > 8.02 | 103% | 88.7% | 58.4% | 35% | 89.9% | 60.5% | 39.5% | 25.8% | 38.2% | 25.9% | 24.1% | 18.6% | 12.2% | 18.3% | 19.3% | viability, T/C [1]: 100%; viability, T/C [2]: 95.5%; viability, T/C [7]: 94.4%; viability, T/C [8]: 94.8%; viability, T/C [13]: 48%; viability, T/C [14]: 51.4%; viability, T/C [19]: 9.02%; viability, T/C [20]: 10.5%; viability, T/C [24]: 9.87%; viability, T/C [25]: 0.14%; viability, T/C [26]: 0.14%; viability, T/C [27]: 0.22%; viability, T/C [28]: 0.29%; viability, T/C [29]: 0.89%; viability, T/C [30]: 0.21%
2 | Cc1sc2c(c1C)C(c1ccc(Cl)cc1)=NC(CC(=O)Nc1ccc(O)cc1)c1nnc(C)n1-2 (stereo not given) + COc1cc2c(cc1O)CCNC21CSC2c3c(OC(C)=O)c(C)c4c(c3C(COC1=O)N1C(O)C3Cc5cc(C)c(OC)c(O)c5C(C21)N3C)OCO4 | 6.80 | 6.94 | > 8.02 | > 8.02 | > 8.02 | 63.9% | 34.8% | 17.8% | 8.07% | 55.1% | 31.3% | 12% | 5.01% | 27.1% | 9.01% | 4.45% | 1.34% | 19.1% | 1.51% | 0.15% | viability, T/C [1]: 102%; viability, T/C [2]: 83.3%; viability, T/C [7]: 92.8%; viability, T/C [8]: 74.7%; viability, T/C [13]: 35.1%; viability, T/C [14]: 38.7%; viability, T/C [19]: 19.8%; viability, T/C [20]: 3.94%; viability, T/C [24]: 0.16%; viability, T/C [25]: 0.08%; viability, T/C [26]: 0.07%; viability, T/C [27]: 0.12%; viability, T/C [28]: 0.13%; viability, T/C [29]: 0.12%; viability, T/C [30]: 0.24%
3 | Cn1ncnc1[C@H]1c2n[nH]c(=O)c3cc(F)cc(c23)N[C@@H]1c1ccc(F)cc1 + COc1cc2c(cc1O)CCNC21CSC2c3c(OC(C)=O)c(C)c4c(c3C(COC1=O)N1C(O)C3Cc5cc(C)c(OC)c(O)c5C(C21)N3C)OCO4 | 7.14 | > 8.02 | > 8.02 | > 8.02 | > 8.02 | 46% | 30.6% | 19.6% | 10.8% | 34.1% | 26.2% | 17.9% | 9.94% | 21.5% | 19.1% | 11.2% | 7.83% | 5.35% | 5.74% | 2.94% | viability, T/C [1]: 70.6%; viability, T/C [2]: 62%; viability, T/C [7]: 48.4%; viability, T/C [8]: 47.3%; viability, T/C [13]: 25.6%; viability, T/C [14]: 26.4%; viability, T/C [19]: 6.63%; viability, T/C [20]: 5.61%; viability, T/C [24]: 0.23%; viability, T/C [25]: 0.15%; viability, T/C [26]: 0.13%; viability, T/C [27]: 0.13%; viability, T/C [28]: 0.15%; viability, T/C [29]: 0.14%; viability, T/C [30]: 0.21%
4 | O=C(c1cc(Cc2n[nH]c(=O)c3ccccc23)ccc1F)N1CCN(C(=O)C2CC2)CC1 + COc1cc2c(cc1O)CCNC21CSC2c3c(OC(C)=O)c(C)c4c(c3C(COC1=O)N1C(O)C3Cc5cc(C)c(OC)c(O)c5C(C21)N3C)OCO4 | 5.04 | 5.22 | > 7.02 | > 7.02 | > 7.02 | 80.3% | 97% | 88.3% | 77.8% | 89.4% | 78.8% | 82.2% | 71.5% | 32.3% | 37.4% | 39.3% | 29.5% | 10.1% | 5.68% | 7.52% | viability, T/C (second compound 30 pM, first compound 9.49 µM): 49.1%; viability, T/C (second compound 30 pM, first compound 30 µM): 30.1%; viability, T/C (second compound 94.9 pM, first compound 9.49 µM): 35.9%; viability, T/C (second compound 94.9 pM, first compound 30 µM): 25.7%; viability, T/C (second compound 0.0003 µM, first compound 9.49 µM): 18.7%; viability, T/C (second compound 0.0003 µM, first compound 30 µM): 16.2%; viability, T/C [24]: 6.02%; viability, T/C (second compound 0.000949 µM, first compound 9.49 µM): 5.03%; viability, T/C (second compound 0.000949 µM, first compound 30 µM): 1.6%; viability, T/C [27]: 0.13%; viability, T/C [28]: 0.15%; viability, T/C [29]: 0.12%; viability, T/C [30]: 0.18%; viability, T/C (second compound 0.003 µM, first compound 9.49 µM): 0.2%; viability, T/C (second compound 0.003 µM, first compound 30 µM): 0.24%
